Earlier results in patent EP3932402A1, “ADAM17 INHIBITORS FOR USE IN THE PREVENTION AND/OR TREATMENT OF COVID-19” (Max-Delbrück-Centrum für Molekulare Medizin in der …, priority 2020, dated 2022).

Experiments:
[1] = molecular target: T1, ADAM17 (Homo sapiens, UniProt P78536); conditions: Moss et al., 2008
T1 construct: host or cells: patients (endogenous enzyme)

[2] = test system: ADAM17, ADAM10; conditions: in combination with trastuzumab; Newton et al

T1 sequence (P78536 215-824): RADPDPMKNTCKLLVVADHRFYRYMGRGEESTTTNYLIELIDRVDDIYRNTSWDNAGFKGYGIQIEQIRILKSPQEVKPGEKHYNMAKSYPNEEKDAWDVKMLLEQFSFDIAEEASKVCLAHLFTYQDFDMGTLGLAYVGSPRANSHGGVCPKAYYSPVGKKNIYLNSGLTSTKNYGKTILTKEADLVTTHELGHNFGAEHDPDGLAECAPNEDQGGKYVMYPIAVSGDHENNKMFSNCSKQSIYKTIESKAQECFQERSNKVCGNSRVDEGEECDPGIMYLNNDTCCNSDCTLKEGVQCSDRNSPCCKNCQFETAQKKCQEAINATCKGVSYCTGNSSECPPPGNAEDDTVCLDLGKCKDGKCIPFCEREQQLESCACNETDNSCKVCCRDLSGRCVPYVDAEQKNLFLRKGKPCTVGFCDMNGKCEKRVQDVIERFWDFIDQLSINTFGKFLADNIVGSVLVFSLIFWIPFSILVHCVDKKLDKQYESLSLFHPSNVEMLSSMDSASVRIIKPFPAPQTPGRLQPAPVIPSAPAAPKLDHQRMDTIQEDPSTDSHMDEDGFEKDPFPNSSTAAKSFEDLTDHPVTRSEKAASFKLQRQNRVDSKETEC

Structure (SMILES) | reason for discontinued development [1] | proof of concept in sepsis and rheumatoid arthritis ([1]; clinical Phase II) | HER2 cleavage [2] | clinical response rate [2] | pro-coagulant effects (adult patients) | deep venous thrombosis, incidence (solid tumors and breast cancer) | dose limiting toxicity (solid tumors and breast cancer) | severity of adverse effects (solid tumors and breast cancer)
CON(Cc1ccc(F)cc1)C(=O)C=C1OC(C)(C)OC1=O [BMS-561392, Acetamide, 2-(2,2-dimethyl-5-oxo-1,3-dioxolan-4-ylidene)-N-((4-fluorophenyl)methyl)-N-methoxy-] | concerns over liver toxicity | beneficial effects | – | – | – | – | – | –
COC(=O)N1CC2(CC2)C[C@H](C(=O)NO)[C@H]1C(=O)N1CCN(c2ccccc2)CC1 [INCB7839, methyl (6S,7S)-7-(hydroxycarbamoyl)-6-(4-phenylpiperazine-1-carbonyl)-5-azaspiro[2.5]octane-5-carboxylate] | – | – | markedly reduced | markedly reduced | observed in some adult patients | 9/41 | deep venous thrombosis | mild to moderate
